According to ChEMBL document CHEMBL3580553, “Potent and Nontoxic Chemosensitizer of P-Glycoprotein-Mediated Multidrug Resistance in Cancer: Synthesis and Evaluation of Methylated Epigallocatechin, Gallocatechin, and Dihydromyricetin Derivatives” (J Med Chem, 2015):

Legend:
[1] = target: ATP-dependent translocase ABCB1 (Homo sapiens, UniProt P08183); assay: Modulation of P-gp (unknown origin) transfected in human MDA435/LCC6MDR cells assessed as reversible of paclitaxel resistance measured as IC50 for paclitaxel at 1 uM after 5 days by CellTiter 96 Aqueous assay relative to PTX alone treated cell; type: cell-based; conditions: 120 h
[2] = Modulation of P-gp (unknown origin) transfected in human MDA435/LCC6MDR cells assessed as reversible of paclitaxel resistance measured as IC50 for paclitaxel at 1 uM after 5 days by CellTiter 96 Aqueous assay
[3] = Cytotoxicity against human MDA435/LCC6MDR cells after 3 days by MTS assay; type: functional, cell-based; conditions: 72 h
[4] = Cytotoxicity against human LCC-6 cells after 3 days by MTS assay; type: functional, cell-based; conditions: LCC-6, 72 h
L929 = assay: Cytotoxicity against mouse L929 cells after 3 days by MTS assay; type: cell-based; conditions: L929, 72 h

ATP-dependent translocase ABCB1, sequence (P08183 whole entry): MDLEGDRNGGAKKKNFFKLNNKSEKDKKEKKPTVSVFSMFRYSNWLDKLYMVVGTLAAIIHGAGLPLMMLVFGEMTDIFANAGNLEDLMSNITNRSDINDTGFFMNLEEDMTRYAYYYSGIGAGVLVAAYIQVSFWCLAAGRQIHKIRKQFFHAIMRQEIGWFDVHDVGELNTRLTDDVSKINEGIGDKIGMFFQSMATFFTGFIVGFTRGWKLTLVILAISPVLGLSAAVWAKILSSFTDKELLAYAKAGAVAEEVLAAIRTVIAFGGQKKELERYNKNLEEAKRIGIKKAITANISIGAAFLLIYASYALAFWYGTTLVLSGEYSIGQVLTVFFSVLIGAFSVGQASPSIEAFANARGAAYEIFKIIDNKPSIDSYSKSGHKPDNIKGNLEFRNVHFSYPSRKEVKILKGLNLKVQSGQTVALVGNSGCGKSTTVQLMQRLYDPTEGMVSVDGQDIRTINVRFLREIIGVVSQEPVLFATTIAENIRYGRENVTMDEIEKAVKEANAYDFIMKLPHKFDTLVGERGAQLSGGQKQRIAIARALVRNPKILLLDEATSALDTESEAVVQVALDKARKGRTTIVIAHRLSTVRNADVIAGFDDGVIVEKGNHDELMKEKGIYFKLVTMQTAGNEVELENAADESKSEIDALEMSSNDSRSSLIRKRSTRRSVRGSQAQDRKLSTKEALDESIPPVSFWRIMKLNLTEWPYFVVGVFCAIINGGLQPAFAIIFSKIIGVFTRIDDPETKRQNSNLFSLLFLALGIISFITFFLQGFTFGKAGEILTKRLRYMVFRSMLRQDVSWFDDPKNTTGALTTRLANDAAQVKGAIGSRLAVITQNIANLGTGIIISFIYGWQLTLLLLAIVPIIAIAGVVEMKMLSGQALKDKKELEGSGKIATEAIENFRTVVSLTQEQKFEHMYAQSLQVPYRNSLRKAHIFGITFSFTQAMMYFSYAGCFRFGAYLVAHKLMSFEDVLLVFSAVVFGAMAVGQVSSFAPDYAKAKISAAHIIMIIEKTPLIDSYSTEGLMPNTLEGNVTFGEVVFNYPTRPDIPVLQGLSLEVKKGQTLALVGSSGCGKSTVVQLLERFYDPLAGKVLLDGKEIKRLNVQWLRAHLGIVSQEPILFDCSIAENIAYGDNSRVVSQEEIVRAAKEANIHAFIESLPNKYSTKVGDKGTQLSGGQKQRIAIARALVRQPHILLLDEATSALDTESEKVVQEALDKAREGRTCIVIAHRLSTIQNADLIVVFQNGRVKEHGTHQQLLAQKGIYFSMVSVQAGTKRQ

Row | Structure (SMILES) | Ratio [1] | IC50 [2] [µM] | IC50 [3] [µM] | IC50 [4] [µM] | IC50 (L929) [µM]
1 | COc1cc(OC)c2c(c1)O[C@H](c1cc(OC)c(OC)c(OC)c1)[C@@H](OC(=O)/C=C/c1ccc(OC)c(OC)c1)C2=O | 5.5 | 0.0262 |  |  | 
2 | C=CCOc1cc(C(=O)O[C@H]2C(=O)c3c(OC)cc(OC)cc3O[C@@H]2c2cc(OC)c(OC)c(OC)c2)cc(OCC=C)c1OCC=C | 4.6 |  |  |  | 
3 | COc1cc(OC)c2c(c1)O[C@H](c1cc(OC)c(OC)c(OC)c1)[C@@H](OC(=O)c1ccc(F)c(NC(=O)c3ccc(OC)c(OC)c3)c1)C2=O | 15.4 |  |  |  | 
4 | COc1cc(OC)c2c(c1)O[C@H](c1cc(OC)c(OC)c(OC)c1)[C@H](OC(=O)c1ccc(OC)c(OC)c1)C2 | 7.4 |  | > 100 | > 100 | > 100
5 | COc1cc(OC)c2c(c1)O[C@H](c1cc(OC)c(OC)c(OC)c1)[C@H](OC(=O)CCc1ccc(OC)c(OC)c1)C2 | 7.6 |  |  |  | 
6 | COc1cc(OC)c2c(c1)O[C@H](c1cc(OC)c(OC)c(OC)c1)[C@H](OC(=O)c1ccc(F)c(NC(=O)/C=C/c3cc(OC)c(OC)c(OC)c3)c1)C2 | 23.3 |  | > 100 | > 100 | > 100
7 | COc1cc(OC)c2c(c1)O[C@H](c1cc(OC)c(OC)c(OC)c1)[C@@H](OC(=O)c1ccc(OC)c(OC)c1)C2 | 12.1 |  |  |  | 
8 | COc1cc(OC)c2c(c1)O[C@H](c1cc(OC)c(OC)c(OC)c1)[C@@H](O)C2 | 1.1 |  |  |  | 
9 | COc1cc(OC)c2c(c1)O[C@H](c1cc(OC)c(OC)c(OC)c1)[C@@H](OC(=O)/C=C/c1cc(OC)c(OC)c(OC)c1)C2 |  |  | > 100 | > 100 | > 100
10 | COc1cc(OC)c2c(c1)O[C@H](c1cc(OC)c(OC)c(OC)c1)[C@@H](OC(=O)c1ccc(F)c(NC(=O)/C=C/c3cc(OC)c(OC)c(OC)c3)c1)C2=O | 5.2 |  |  |  | 
11 | CC(=O)Oc1cc(OC(C)=O)c2c(c1)O[C@H](c1cc(OC(C)=O)c(OC(C)=O)c(OC(C)=O)c1)[C@H](OC(=O)c1cc(OC(C)=O)c(OC(C)=O)c(OC(C)=O)c1)C2 | 0.8 |  | 31.7 | 71.5 | 41.4
12 | COc1cc(OC)c2c(c1)O[C@H](c1cc(OC)c(OC)c(OC)c1)[C@H](OC(=O)c1ccc(F)c(NC(=O)c3ccc(F)c(NC(=O)c4ccc(OC)c(OC)c4)c3)c1)C2 | 10.6 |  |  |  | 
13 | COc1cc(OC)c2c(c1)O[C@H](c1cc(OC)c(OC)c(OC)c1)[C@H](OC(=O)Cc1ccc(OC)c(OC)c1)C2 | 4.5 |  |  |  | 
14 | COc1cc(OC)c2c(c1)O[C@H](c1cc(OC)c(OC)c(OC)c1)[C@H](OC(=O)c1cccc(F)c1)C2 | 1.5 |  | > 100 | > 100 | > 100
15 | COc1cc(O)c2c(=O)c(OC(=O)c3cc(OC)c(OC)c(OC)c3)c(-c3ccc(OC)c(OC)c3)oc2c1 | 2.1 |  |  |  | 
16 | COc1cc(OC)c2c(c1)O[C@H](c1cc(OC)c(OC)c(OC)c1)[C@@H](OC(=O)c1ccc(F)c(NC(=O)c3cc(OC)c(OC)c(OC)c3)c1)C2=O | 4 |  |  |  | 
17 | COc1ccc(C(=O)O[C@@H]2Cc3c(OC)cc(OC)cc3O[C@@H]2c2cc(OC)c(OC)c(OC)c2)cc1 | 1 |  | > 84 | > 100 | > 100
18 | COc1ccc(/C=C/C(=O)O[C@@H]2Cc3c(OC)cc(OC)cc3O[C@@H]2c2cc(OC)c(OC)c(OC)c2)cc1 | 6.6 |  | > 100 | > 100 | > 100
19 | CC(=O)O[C@H]1C(=O)[C@@]2(C)[C@H]([C@H](OC(=O)c3ccccc3)[C@]3(O)C[C@H](OC(=O)[C@H](O)[C@@H](NC(=O)c4ccccc4)c4ccccc4)C(C)=C1C3(C)C)[C@]1(OC(C)=O)CO[C@@H]1C[C@@H]2O [PACLITAXEL] |  |  | 0.145 | 0.0016 | 
20 | COc1ccc(C(=O)OCCOc2c(-c3ccc(OC)c(OC)c3)oc3cc(OC)cc(OC)c3c2=O)cc1 | 6 |  |  |  | 
21 | COc1cc(OC)c2c(c1)O[C@H](c1cc(OC)c(OC)c(OC)c1)[C@H](OC(=O)c1ccc(F)c(NC(=O)c3ccc(F)c(NC(=O)c4cc(OC)c(OC)c(OC)c4)c3)c1)C2 | 10.8 |  |  |  | 
22 | COc1ccc(C(=O)O[C@H]2C(=O)c3c(OC)cc(OC)cc3O[C@@H]2c2cc(OC)c(OC)c(OC)c2)cc1 | 3 |  |  |  | 
23 | COc1cc(OC)c2c(=O)c(OCCOC(=O)/C=C/c3cc(OC)c(OC)c(OC)c3)c(-c3ccc(OC)c(OC)c3)oc2c1 | 11.2 |  |  |  | 
24 | COc1cc(OC)c2c(c1)O[C@H](c1cc(OC)c(OC)c(OC)c1)[C@H](OC(=O)CCc1cc(OC)c(OC)c(OC)c1)C2 | 8 |  |  |  | 

Now from value to compound, other results behind:

Row | Ratio [1] | IC50 [2] [µM] | Structure (SMILES) | IC50 [3] [µM] | IC50 [4] [µM] | IC50 (L929) [µM]
25 | 3.3 |  | COc1cc(OC)c2c(c1)O[C@H](c1cc(OC)c(OC)c(OC)c1)[C@@H](OC(=O)c1cc(OC)c(OC)c(OC)c1)C2=O |  |  | 
26 | 4.2 |  | COc1ccc(CC(=O)O[C@@H]2Cc3c(OC)cc(OC)cc3O[C@@H]2c2cc(OC)c(OC)c(OC)c2)cc1 |  |  | 
27 | 5.8 | 0.025 | COc1cc(OC)c2c(c1)O[C@H](c1cc(OC)c(OC)c(OC)c1)[C@H](OC(=O)Cc1cc(OC)c(OC)c(OC)c1)C2 |  |  | 
28 | 4 |  | COc1cc(OC)c2c(c1)O[C@H](c1cc(OC)c(OC)c(OC)c1)[C@H](OC(=O)c1ccc(F)c(N(C)C)c1)C2 | > 100 | > 100 | > 100
29 | 3.6 |  | COc1ccc(/C=C/C(=O)O[C@H]2C(=O)c3c(OC)cc(OC)cc3O[C@@H]2c2cc(OC)c(OC)c(OC)c2)cc1 |  |  | 
30 | 3.2 |  | COc1cccc(C(=O)O[C@@H]2Cc3c(OC)cc(OC)cc3O[C@@H]2c2cc(OC)c(OC)c(OC)c2)c1 | > 100 | > 100 | > 100
31 | 4 |  | COc1cc(OC)c2c(c1)O[C@H](c1cc(OC)c(OC)c(OC)c1)[C@@H](OC(=O)c1ccc(OC)c(OC)c1)C2=O |  |  | 
32 | 3.6 |  | COc1ccc(CCC(=O)O[C@@H]2Cc3c(OC)cc(OC)cc3O[C@@H]2c2cc(OC)c(OC)c(OC)c2)cc1 |  |  | 
33 | 9.1 | 0.0159 | COc1cc(OC)c2c(c1)O[C@H](c1cc(OC)c(OC)c(OC)c1)[C@@H](OC(=O)/C=C/c1cc(OC)c(OC)c(OC)c1)C2=O |  |  | 
34 | 2.2 |  | COc1ccc(C(=O)O[C@H]2Cc3c(OC)cc(OC)cc3O[C@@H]2c2cc(OC)c(OC)c(OC)c2)cc1 |  |  | 
35 | 7.8 |  | COc1ccc(/C=C/C(=O)O[C@H]2Cc3c(OC)cc(OC)cc3O[C@@H]2c2cc(OC)c(OC)c(OC)c2)cc1 |  |  | 
36 | 3 |  | COc1cc(OC)c2c(c1)O[C@H](c1cc(OC)c(OC)c(OC)c1)[C@@H](OC(=O)c1cc(OC)c(OC)c(OC)c1)C2 |  |  | 
37 | 2.7 |  | COc1cc(OC)c2c(c1)O[C@H](c1cc(OC)c(OC)c(OC)c1)[C@H](OC(=O)c1ccc(F)cc1)C2 | > 100 | > 100 | > 100
38 | 1.3 |  | CCOc1cc(C(=O)O[C@@H]2Cc3c(OC)cc(OC)cc3O[C@@H]2c2cc(OC)c(OC)c(OC)c2)cc(OCC)c1OCC | > 100 | > 100 | > 100
39 | 1.4 |  | COc1cc(OC)c2c(c1)O[C@H](c1cc(OC)c(OC)c(OC)c1)[C@@H](OC(C)=O)C2=O |  |  | 
40 | 9.8 |  | COc1cc(OC)c2c(c1)O[C@H](c1cc(OC)c(OC)c(OC)c1)[C@H](OC(=O)c1ccc(F)c(NC(C)=O)c1)C2 | > 100 | > 100 | > 100
41 | 12.1 |  | C=CCOc1cc(C(=O)O[C@@H]2Cc3c(OC)cc(OC)cc3O[C@@H]2c2cc(OC)c(OC)c(OC)c2)cc(OCC=C)c1OCC=C | > 100 | > 100 | > 100
